Patent US11389429B2, “Use of carbamate compound for preventing, alleviating or treating myotonia” (SK BIOPHARMACEUTICALS CO., LTD., priority 2017, dated 2022)

System: myotonia induced by anthracene-9-carboxylic acid (9-AC) in Sprague-Dawley rats
Assay: Myotonia induction model by drug (9-AC) treatment, righting reflex test
Type: in vivo, rat
Parameters: Average Righting reflex time (TRR): unit not given here
Details: for Average Righting reflex time (TRR): 9-AC given 20 minutes later
Description: The efficacy for myotonia of the compounds of the above Formula 1 can be confirmed by the use of known models. For example, the efficacy of the compounds of the above Formula 1 may be evaluated in a myotonia model caused by anthracene-9-carboxylic acid (9-AC). Anthracene-9-carboxylic acid can cause myotonic conditions by blocking the chloride channel-1 of muscle cells. Myotonic conditions are induced by intraperitoneal injection once to experimental animals (rats), and can be evaluated by measuring the righting reflex time. Righting reflex is a reflex behavior in which the animal's body returns from an abnormal position to a normal position, and the degree of myotonia can be evaluated by measurement of righting reflex behavior due to abnormality of muscle tension/relaxation after 9-AC treatment. Specifically, the degree of spasticity is evaluated by measuring the time that it takes for the four feet of the experimental animal to land normally when the experimental animal is turned upside down and the posture is straightened (time of righting reflex, TRR).
In the experimental animal model of myotonia induction by drug (9-AC) treatment, it was reported that the time to return to normal posture after righting reflex was delayed when measuring the rat's spasticity conditions using righting reflex (Desaphy et al., 2013, Neuropharmacology, 65: 21-27).
As an experimental model, Sprague-Dawley rats (350-400 g, 10 weeks old, a total of 36 males) were used (Orient Bio Inc.). The drug anthracene-9-carboxylic acid (9-AC) used to induce myotonia is a drug that inhibits chloride channel-1 of skeletal muscle cells and induces hyperexcitation of muscle cells. The control group (30% PEG300) or test compound was intraperitoneally administered to the rat once in each dose (15, 20 mg/kg). Test compounds were diluted in 30% PEG300 solution to a final dose of 5 ml/kg. After 20 minutes of administration of control group or test compound, 0.3% NaHCO3 solution containing 6 mg/ml of 9-AC was intraperitoneally administered by 10 ml/kg. After administration of 9-AC, righting reflex tests were performed at 30 minutes and 1 hour, respectively, and the time to return to normal posture (time of righting reflex, TRR) was measured.
Statistical analysis was used for the one-way ANOVA (1-way ANOVA) and Tukey's multiple comparison test, and outliers were excluded through the ROUT outlier analysis test (Q=1%) (in the 30-minute test, excluding each one in the control group and the 20 mg/kg treatment group; in the 1-hour test, excluding one in the 20 mg/kg treatment group). The results were derived from three repeated experiments.

NC(=O)O[C@@H](Cn1ncnn1)c1ccccc1Cl [Test compound, carbamic acid (R)-1-(2-chlorophenyl)-2-tetrazol-2-yl-ethyl ester]
Average Righting reflex time (TRR) (15 mg/kg intraperitoneal, measured 30 minutes after 9-AC, n = 9): 2.282 ± 0.304 | Average Righting reflex time (TRR) (15 mg/kg intraperitoneal, measured 1 hour after 9-AC, n = 9): 4.978 ± 0.944 | Average Righting reflex time (TRR) (20 mg/kg intraperitoneal, measured 30 minutes after 9-AC, n = 8): 1.85 ± 0.266 | Average Righting reflex time (TRR) (20 mg/kg intraperitoneal, measured 1 hour after 9-AC, n = 8): 2.515 ± 0.328 | Time to return to normal posture compared to the control group (statistical significance) (20 mg/kg, at both 30 minutes and 1 hour after 9-AC, P<0.05, one-way ANOVA and Tukey's test): significant time reduction effect | Time to return to normal posture compared to the control group in righting reflex test (15 and 20 mg/kg, 30 minutes and 1 hour after spasticity was induced): decrease in time to return to normal posture
